Measurements from ChEMBL document CHEMBL5518188, “Discovery of 4-amino-1,6-dihydro-7H-pyrrolo[2,3-d]pyridazin-7-one derivatives as potential receptor-interacting serine/threonine-protein kinase 1 (RIPK1) inhibitors” (Eur J Med Chem, 2024).
Active and inactive are the calls of the source. The calls are words filed in the database; no cut-off is given here.

What was measured:
[1] = target: T1, Receptor-interacting serine/threonine-protein kinase 1 (Homo sapiens, UniProt Q13546); assay: Inhibition of RIPK1 (unknown origin) in presence of ATP by kinaseProfiler assay
T1 sequence (Q13546 whole entry): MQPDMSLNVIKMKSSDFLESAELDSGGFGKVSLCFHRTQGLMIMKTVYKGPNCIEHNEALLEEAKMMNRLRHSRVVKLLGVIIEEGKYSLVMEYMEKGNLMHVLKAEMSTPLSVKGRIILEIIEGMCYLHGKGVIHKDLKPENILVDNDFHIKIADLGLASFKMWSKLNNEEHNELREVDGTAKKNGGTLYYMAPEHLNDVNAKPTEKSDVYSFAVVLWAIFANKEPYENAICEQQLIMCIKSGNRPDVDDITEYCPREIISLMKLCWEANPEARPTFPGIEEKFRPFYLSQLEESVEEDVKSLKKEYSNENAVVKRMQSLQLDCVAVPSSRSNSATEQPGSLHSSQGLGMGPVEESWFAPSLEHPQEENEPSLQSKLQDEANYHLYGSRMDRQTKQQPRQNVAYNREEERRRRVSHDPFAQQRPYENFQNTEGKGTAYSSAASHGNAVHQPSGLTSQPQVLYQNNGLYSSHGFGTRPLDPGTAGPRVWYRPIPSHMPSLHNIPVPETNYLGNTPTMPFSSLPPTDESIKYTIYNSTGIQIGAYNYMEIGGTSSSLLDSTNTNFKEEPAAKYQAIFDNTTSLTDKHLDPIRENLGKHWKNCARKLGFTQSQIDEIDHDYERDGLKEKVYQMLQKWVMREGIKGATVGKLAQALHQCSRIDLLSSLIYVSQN

L929 = assay: Anti-necroptosis activity against TSZ-induced mouse L929 cells; type: functional, cell-based
[2] = Cmax in BALB/c mouse at 10 mg/kg, po; type: ADME, organism-based; conditions: in vivo
[3] = Tmax in BALB/c mouse at 10 mg/kg, po; type: ADME, organism-based; conditions: in vivo
[4] = Clearance in BALB/c mouse at 10 mg/kg, po; type: ADME, organism-based; conditions: BALB/c, in vivo
[5] = AUC (0 to t) in BALB/c mouse at 10 mg/kg, po; type: ADME, organism-based; conditions: BALB/c, in vivo
[6] = Cmax in BALB/c mouse at 10 mg/kg, iv; type: ADME, organism-based; conditions: in vivo
[7] = Half life in BALB/c mouse at 10 mg/kg, iv; type: ADME, organism-based; conditions: in vivo
[8] = AUC (0 to t) in BALB/c mouse at 10 mg/kg, iv; type: ADME, organism-based; conditions: BALB/c, in vivo
[9] = target: T2, Receptor-interacting serine/threonine-protein kinase 3 (Homo sapiens, UniProt Q9Y572); assay: Binding affinity to RIPK3 (unknown origin) assessed as dissociation constant
Target sequence in this assay (Q9Y572 whole entry): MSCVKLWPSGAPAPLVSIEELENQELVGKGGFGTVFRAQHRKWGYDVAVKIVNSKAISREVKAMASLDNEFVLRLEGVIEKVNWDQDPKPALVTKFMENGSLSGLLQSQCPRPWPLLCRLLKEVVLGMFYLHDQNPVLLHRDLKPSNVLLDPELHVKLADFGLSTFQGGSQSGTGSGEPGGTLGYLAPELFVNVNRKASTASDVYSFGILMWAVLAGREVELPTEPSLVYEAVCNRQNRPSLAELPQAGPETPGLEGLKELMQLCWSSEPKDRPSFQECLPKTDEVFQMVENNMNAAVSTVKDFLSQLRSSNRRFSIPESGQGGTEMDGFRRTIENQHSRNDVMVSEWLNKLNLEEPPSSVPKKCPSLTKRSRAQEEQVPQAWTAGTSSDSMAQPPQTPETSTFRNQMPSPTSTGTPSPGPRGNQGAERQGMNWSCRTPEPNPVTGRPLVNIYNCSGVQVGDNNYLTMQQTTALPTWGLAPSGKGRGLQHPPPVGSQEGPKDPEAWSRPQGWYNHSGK

Mus musculus [10] = assay: In vivo anti-necrotptic activity in SIRS mouse model assessed as protection from body temperature loss at 10 mg/kg, po measured upto 6 hrs; type: functional, organism-based
Mus musculus [11] = assay: In vivo anti-necrotptic activity in po dosed SIRS mouse model assessed as reduction in IL-6 level measured at 4 hrs; type: functional, organism-based; conditions: dose 2.5-10 mg/kg
[12] = target: T3, Discoidin domain-containing receptor 2 (Homo sapiens) (UniProt Q16832); assay: Inhibition of DDR2 (unknown origin)
T3 sequence (whole entry): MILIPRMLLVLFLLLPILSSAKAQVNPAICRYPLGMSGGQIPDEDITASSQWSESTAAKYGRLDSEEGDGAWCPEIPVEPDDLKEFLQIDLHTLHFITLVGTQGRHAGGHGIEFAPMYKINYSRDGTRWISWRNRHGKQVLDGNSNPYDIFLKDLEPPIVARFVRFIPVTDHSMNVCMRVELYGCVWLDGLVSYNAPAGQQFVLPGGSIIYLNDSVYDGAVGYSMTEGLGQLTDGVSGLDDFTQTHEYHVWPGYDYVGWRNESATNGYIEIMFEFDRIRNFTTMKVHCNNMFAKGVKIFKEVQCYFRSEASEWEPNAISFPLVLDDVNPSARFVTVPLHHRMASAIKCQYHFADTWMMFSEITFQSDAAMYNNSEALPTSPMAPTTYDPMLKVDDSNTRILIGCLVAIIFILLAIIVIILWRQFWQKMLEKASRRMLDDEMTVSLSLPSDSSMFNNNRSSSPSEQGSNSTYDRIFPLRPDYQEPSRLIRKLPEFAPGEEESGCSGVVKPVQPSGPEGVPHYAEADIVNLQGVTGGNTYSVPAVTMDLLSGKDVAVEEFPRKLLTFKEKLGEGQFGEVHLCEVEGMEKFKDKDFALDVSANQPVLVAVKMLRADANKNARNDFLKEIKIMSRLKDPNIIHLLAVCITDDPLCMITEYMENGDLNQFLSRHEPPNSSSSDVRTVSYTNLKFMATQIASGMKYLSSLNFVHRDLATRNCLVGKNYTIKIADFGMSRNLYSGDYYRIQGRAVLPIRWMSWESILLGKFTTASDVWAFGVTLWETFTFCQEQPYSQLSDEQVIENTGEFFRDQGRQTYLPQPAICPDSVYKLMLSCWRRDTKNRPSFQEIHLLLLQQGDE

[13] = target: Angiopoietin-1 receptor (Homo sapiens) (UniProt Q02763); assay: Inhibition of Tie2 (unknown origin)
Chain of Angiopoietin-1 receptor (Homo sapiens) (Q02763 whole entry): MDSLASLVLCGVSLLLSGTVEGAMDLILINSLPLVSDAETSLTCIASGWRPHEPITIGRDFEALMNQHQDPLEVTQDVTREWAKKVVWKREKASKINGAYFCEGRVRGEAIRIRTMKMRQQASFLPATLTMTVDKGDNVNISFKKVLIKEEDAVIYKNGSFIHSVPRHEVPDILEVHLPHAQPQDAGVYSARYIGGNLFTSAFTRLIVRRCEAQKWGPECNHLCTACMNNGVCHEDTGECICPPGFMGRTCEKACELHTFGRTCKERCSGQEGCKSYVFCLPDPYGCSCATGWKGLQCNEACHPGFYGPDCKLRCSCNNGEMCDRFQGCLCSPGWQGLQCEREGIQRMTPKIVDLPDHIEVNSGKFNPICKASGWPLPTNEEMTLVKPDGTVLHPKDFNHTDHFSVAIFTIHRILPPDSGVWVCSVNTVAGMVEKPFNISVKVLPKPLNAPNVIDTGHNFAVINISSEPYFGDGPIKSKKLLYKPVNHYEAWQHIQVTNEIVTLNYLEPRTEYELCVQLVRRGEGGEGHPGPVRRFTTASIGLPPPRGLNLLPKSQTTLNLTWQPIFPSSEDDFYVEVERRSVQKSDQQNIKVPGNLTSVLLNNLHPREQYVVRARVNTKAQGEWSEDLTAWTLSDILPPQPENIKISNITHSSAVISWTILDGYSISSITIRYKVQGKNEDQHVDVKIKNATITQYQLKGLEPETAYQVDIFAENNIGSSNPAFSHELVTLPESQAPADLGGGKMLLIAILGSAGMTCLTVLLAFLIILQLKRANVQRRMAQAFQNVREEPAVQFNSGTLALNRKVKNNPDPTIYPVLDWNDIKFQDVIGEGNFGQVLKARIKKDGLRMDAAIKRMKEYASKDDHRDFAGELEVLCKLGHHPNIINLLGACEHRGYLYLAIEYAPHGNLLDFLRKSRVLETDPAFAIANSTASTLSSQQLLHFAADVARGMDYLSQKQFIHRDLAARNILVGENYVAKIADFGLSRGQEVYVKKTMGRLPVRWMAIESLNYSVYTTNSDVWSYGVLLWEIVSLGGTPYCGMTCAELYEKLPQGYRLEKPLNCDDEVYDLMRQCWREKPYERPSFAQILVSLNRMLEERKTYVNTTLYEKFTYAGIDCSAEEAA

[14] = target: High affinity nerve growth factor receptor (Homo sapiens) (UniProt P04629); assay: Inhibition of TRKA (unknown origin)
Chain of High affinity nerve growth factor receptor (Homo sapiens) (P04629 33-796 limits assumed): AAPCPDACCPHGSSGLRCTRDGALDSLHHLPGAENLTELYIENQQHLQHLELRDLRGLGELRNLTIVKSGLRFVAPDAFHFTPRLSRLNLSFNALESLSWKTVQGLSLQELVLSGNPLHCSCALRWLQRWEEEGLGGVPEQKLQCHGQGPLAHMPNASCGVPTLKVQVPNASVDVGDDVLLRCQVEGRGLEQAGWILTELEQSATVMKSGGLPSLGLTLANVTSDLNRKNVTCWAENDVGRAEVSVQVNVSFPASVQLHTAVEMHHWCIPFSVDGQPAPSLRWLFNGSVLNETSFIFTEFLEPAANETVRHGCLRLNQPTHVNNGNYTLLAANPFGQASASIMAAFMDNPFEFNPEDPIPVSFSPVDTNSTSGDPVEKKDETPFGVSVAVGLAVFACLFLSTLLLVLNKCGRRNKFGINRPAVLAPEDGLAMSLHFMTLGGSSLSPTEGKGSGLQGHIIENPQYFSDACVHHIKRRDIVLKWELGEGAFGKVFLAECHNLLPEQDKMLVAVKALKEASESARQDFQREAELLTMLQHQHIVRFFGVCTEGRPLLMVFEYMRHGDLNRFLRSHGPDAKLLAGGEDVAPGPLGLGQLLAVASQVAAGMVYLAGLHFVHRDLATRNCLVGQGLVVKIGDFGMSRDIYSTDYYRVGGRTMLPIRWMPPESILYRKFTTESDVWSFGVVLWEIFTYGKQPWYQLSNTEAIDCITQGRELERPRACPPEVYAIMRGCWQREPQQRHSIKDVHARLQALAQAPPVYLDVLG

[15] = target: NT-3 growth factor receptor (Homo sapiens) (UniProt Q16288); assay: Inhibition of TRKC (unknown origin)
Chain of NT-3 growth factor receptor (Homo sapiens) (Q16288 32-839 limits assumed): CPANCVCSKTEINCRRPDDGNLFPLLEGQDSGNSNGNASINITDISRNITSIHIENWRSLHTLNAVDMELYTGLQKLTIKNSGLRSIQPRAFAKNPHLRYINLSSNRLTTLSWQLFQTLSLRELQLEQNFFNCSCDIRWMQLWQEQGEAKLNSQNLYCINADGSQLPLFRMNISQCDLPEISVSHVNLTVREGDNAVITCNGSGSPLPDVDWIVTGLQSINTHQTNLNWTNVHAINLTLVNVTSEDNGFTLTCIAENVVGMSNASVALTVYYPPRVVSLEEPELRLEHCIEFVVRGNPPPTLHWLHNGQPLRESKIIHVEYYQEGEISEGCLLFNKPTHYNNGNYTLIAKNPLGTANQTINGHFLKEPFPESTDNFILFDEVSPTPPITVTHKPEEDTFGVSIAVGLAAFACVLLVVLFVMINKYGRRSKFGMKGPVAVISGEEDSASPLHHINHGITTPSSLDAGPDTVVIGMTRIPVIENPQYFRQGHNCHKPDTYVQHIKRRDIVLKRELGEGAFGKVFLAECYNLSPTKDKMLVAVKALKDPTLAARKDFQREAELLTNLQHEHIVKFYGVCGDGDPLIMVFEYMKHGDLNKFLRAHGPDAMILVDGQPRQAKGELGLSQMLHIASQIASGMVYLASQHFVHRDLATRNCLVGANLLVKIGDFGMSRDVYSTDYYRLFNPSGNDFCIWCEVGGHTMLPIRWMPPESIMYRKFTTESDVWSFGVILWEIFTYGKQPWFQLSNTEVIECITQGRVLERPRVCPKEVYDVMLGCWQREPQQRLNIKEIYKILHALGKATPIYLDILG

[16] = target: Eukaryotic translation initiation factor 2-alpha kinase 1 (Homo sapiens) (UniProt Q9BQI3); assay: Inhibition of HRI (unknown origin)
Chain of Eukaryotic translation initiation factor 2-alpha kinase 1 (Homo sapiens) (Q9BQI3 whole entry): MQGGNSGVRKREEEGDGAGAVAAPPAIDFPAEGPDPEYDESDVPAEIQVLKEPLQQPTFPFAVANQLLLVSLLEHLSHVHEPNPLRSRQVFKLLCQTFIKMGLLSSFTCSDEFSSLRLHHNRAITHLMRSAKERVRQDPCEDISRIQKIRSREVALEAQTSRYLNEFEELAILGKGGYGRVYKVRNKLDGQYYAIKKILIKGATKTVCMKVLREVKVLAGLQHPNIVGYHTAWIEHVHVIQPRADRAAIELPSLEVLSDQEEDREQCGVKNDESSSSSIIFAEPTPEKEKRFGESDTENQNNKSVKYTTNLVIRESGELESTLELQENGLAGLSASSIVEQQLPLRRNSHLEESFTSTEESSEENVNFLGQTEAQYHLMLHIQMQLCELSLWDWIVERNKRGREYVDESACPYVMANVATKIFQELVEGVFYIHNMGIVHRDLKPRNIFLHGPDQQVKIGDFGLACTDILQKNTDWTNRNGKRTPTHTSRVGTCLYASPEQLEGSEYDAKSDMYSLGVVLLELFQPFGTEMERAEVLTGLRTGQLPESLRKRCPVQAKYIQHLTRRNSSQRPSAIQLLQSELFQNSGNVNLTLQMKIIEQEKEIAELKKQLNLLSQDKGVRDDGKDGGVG

[17] = target: Tyrosine-protein kinase Lyn (Homo sapiens) (UniProt P07948); assay: Inhibition of LYN (unknown origin)
Chain of Tyrosine-protein kinase Lyn (Homo sapiens) (P07948 2-512 limits assumed): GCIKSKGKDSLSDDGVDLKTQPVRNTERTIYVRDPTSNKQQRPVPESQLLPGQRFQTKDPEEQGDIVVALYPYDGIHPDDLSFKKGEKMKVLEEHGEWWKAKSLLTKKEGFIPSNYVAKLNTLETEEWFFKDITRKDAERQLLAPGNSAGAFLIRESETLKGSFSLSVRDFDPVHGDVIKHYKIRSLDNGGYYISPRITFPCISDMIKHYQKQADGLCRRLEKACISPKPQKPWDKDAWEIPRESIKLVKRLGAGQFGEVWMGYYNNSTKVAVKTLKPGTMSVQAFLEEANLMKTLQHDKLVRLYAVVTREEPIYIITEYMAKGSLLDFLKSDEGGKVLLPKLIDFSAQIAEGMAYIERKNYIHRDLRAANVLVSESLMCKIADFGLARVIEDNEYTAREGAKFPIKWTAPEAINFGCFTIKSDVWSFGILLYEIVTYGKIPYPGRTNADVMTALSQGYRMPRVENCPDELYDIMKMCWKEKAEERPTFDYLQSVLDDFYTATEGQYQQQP

[18] = target: T2, Receptor-interacting serine/threonine-protein kinase 3; conditions: HT-29, dose 3.0 nM, time 6.0 hrs
Target sequence in this assay (Q9Y572 whole entry, looked up): as the sequence (Q9Y572 whole entry) above

[19] = target: T4, Mixed lineage kinase domain-like protein (Homo sapiens) (UniProt Q8NB16); conditions: HT-29, dose 30.0 nM, time 6.0 hrs
T4 sequence (whole entry): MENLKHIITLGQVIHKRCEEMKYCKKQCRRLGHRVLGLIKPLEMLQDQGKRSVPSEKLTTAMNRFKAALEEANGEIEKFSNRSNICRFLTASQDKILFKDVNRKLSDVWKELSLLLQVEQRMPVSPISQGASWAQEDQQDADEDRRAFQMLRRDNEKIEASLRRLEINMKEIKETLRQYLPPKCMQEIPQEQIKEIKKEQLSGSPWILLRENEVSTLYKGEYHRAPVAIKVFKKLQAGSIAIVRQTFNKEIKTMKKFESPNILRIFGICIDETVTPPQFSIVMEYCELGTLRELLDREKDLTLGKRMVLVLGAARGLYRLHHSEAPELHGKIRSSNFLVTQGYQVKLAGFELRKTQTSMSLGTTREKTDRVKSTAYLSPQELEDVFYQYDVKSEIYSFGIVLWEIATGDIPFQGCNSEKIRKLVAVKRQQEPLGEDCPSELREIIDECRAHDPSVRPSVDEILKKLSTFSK

Q: What does the source list for `CC1(Cn2cc(-c3ccc4c(c3)CCN4C(=O)Cc3cccc(OC(F)(F)F)c3)c3c(N)n[nH]c(=O)c32)COC1`?
A: IC50 [1]: 59.8 nM; EC50 (L929): 1.06 nM; Cmax [2]: 2700 ng/mL; Tmax [3]: 4.8 min; CL/F [4]: 17.3 mL/min/kg; AUC(0-t) [5]: 9640 ng·h/mL; Cmax [6]: 8040 ng/mL; half-life [7]: 49.8 min; AUC(0-t) [8]: 9640 ng·h/mL; Kd [9]: 1700 nM; Activity (Mus musculus [10]): Active; Activity (Mus musculus [11]): Dose-Dependent Effect; inhibition [12]: Active; inhibition [13]: Active; inhibition [14]: Active; inhibition [15]: Active; inhibition [16]: Active; inhibition [17]: Active; inhibition [18]: Dose-Dependent Effect; inhibition [19]: Dose-Dependent Effect
